Results on three compounds are retold here after PubChem BioAssay (NCI).

Among the test systems are RXF 393 renal; HCT-15 colon; COLO 205 colon; LXFL 529 NSCLC; TK-10 renal; IGROV1 ovarian; RPMI-8226 leukemia; NCI/ADR-RES ovarian; OVCAR-8 ovarian; UACC-257 melanoma; HT29 colon; NCI-H23 lung; NCI-H226 lung; ACHN renal; OVCAR-4 ovarian; 786-0 renal; DU-145 prostate; MOLT-4 leukemia; NCI-H522 lung; SR leukemia.
What all share (experiment): DTP human tumour cell line panel, 48 h

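Protocol summary: plate cells (96-well), add compound at 5 concentrations, incubate 48 h, interpolate endpoints linearly. The concentration for full growth arrest is given as TGI.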 Where only a bound is given, the exact number is not on record here.

For the compound `O=c1cc(-c2cccc(O)c2)[nH]c2cc3c(cc12)OCO3`, the TGI (usually the concentration at which net growth stops) is over 100 µM in the assay with RXF 393 renal; over 100 µM in the assay on HCT-15 colon; 9.32 µM in the assay on COLO 205 colon; over 100 µM with LXFL 529 NSCLC; over 100 µM in the assay on TK-10 renal; over 100 µM in the assay on IGROV1 ovarian. Also, the TGI with RPMI-8226 leukemia was over 100 µM; with NCI/ADR-RES ovarian it was 4 µM; in the assay with OVCAR-8 ovarian it was over 29.7 µM; in the assay on UACC-257 melanoma it was over 100 µM; in the assay on HT29 colon, over 100 µM; with NCI-H23 lung, over 100 µM. Moreover, the TGI with NCI-H226 lung is 23.8 µM; in the assay on ACHN renal, over 100 µM; in the assay on OVCAR-4 ovarian, over 100 µM; in the assay with 786-0 renal it was over 69.9 µM; with DU-145 prostate, 0.883 µM; in the assay on MOLT-4 leukemia, over 100 µM. The TGI in the assay on NCI-H522 lung is 0.951 µM.
For the compound `C[n+]1c2ccccc2c(NCC(=O)O)c2ccccc21`, the TGI in the assay with RXF 393 renal, in the assay on HCT-15 colon, with COLO 205 colon, in the assay with LXFL 529 NSCLC, in the assay with TK-10 renal and in the assay on IGROV1 ovarian was over 100 µM each time. Also, the TGI with RPMI-8226 leukemia, with OVCAR-8 ovarian, in the assay on UACC-257 melanoma, with HT29 colon, with NCI-H23 lung and in the assay on SR leukemia was over 100 µM throughout. Besides, the TGI in the assay with NCI-H226 lung, in the assay on ACHN renal, with OVCAR-4 ovarian, with 786-0 renal, in the assay on MOLT-4 leukemia and in the assay with NCI-H522 lung was over 100 µM throughout.
In the case of `Cc1cc(=O)[nH]c(NNC(C#N)c2cccc(O)c2)n1` (stereo not given), the TGI in the assay on RXF 393 renal, in the assay with HCT-15 colon, in the assay with COLO 205 colon, in the assay with LXFL 529 NSCLC, with TK-10 renal and in the assay on IGROV1 ovarian was over 100 µM each time. The TGI with RPMI-8226 leukemia, with OVCAR-8 ovarian, in the assay with UACC-257 melanoma, in the assay with HT29 colon, in the assay on NCI-H23 lung and in the assay with SR leukemia was over 100 µM throughout. The TGI in the assay with NCI-H226 lung, with ACHN renal, in the assay with OVCAR-4 ovarian, in the assay with 786-0 renal, in the assay on MOLT-4 leukemia and in the assay on NCI-H522 lung was over 100 µM each time.
